{
  "source": "patent US11524966B1",
  "about": "(Valo Early Discovery, Inc., priority 2017, dated 2022)",
  "data": [
    {"target": "T1, USP28 (His-tagged USP28-FL-mammalian) (Homo sapiens, UniProt Q96RU2)", "T1 construct": "Expression of USP28 (1-1077)-TEV-6*His (pTT5 vector); made in house; host or cells: Expi293f cells (pTT5 vector)", "T1 sequence (Q96RU2 1-1077)": "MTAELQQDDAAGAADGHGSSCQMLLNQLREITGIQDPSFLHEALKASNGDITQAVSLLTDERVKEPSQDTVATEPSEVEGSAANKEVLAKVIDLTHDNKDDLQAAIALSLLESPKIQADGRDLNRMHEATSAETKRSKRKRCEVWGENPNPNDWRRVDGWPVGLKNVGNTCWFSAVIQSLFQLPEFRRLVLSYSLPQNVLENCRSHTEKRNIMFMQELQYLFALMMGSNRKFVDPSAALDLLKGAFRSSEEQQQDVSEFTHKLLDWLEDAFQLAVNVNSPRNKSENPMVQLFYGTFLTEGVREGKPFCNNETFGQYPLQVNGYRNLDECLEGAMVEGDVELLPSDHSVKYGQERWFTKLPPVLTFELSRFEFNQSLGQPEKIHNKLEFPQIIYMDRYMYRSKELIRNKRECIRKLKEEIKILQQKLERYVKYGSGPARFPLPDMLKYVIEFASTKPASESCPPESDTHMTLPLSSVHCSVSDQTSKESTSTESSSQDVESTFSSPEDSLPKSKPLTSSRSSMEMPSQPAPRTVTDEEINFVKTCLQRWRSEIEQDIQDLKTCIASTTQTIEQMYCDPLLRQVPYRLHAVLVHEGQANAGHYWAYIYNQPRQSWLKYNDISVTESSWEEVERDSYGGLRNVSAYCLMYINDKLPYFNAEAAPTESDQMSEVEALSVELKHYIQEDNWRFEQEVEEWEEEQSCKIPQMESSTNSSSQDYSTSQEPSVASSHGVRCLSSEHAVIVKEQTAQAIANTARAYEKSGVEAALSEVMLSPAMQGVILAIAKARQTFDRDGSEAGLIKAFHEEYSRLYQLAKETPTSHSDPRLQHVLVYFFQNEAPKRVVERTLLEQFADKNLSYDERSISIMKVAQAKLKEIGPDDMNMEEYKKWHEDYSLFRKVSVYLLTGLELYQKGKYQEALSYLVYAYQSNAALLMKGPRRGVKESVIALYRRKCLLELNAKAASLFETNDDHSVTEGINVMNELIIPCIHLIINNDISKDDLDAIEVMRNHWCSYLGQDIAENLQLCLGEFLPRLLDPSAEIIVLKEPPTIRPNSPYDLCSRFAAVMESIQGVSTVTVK", "assay": "Ubiquitin-Rhodamine 110 Assay for USP28 Activity, Example A-1(a)", "assay_type": "biochemical", "settings": "Ub-Rh110 assay, Example A-1(a); read-out: USP28 A-1(a) IC50 range", "in_short": "(§1)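 Full-length His-tagged USP28 (1-1077, Expi293F-expressed; […]) was preincubated 30 min with compound (25 μM–1.3 nM, 10-point 3-fold) in 20 mM Tris-HCl pH 8.0, 3 mM BME, 0.03% BGG, 0.01% Triton X-100. Ub-Rh110 (25 nM) was then added for 45 min at room temperature, stopped with citric acid, and read by fluorescence (485/535 nm).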", "units": {"IC50": "nM"}, "values": [
      {"smiles": "O=C(N[C@H]1COc2cc(N3CC4CCC(C3)N4)ccc2C1)c1ccc(NCc2ccccc2)nc1", "note": "[Example 2-25, N-((3R)-7-(3,8-diazabicyclo[3.2.1]octan-3-yl)chroman-3-yl)-6-(benzylamino)nicotinamide]", "IC50": "50 to 200"},
      {"smiles": "Cc1nc2sc(C(=O)N[C@H]3COc4cc(N5CC6CC(C5)N6)ccc4C3)c(N)c2s1", "note": "[Example 2-26, N-((3R)-7-(3,6-diazabicyclo[3.1.1]heptan-3-yl)chroman-3-yl)-6-amino-2-methylthieno[2,3-d]thiazole-5-carboxamide]", "IC50": "50 to 200"},
      {"smiles": "Cc1nc2sc(C(=O)N[C@H]3COc4cc(N5CC6CCCC(C5)N6)ccc4C3)c(N)c2s1", "note": "[Example 2-27]", "IC50": "1 to 50"},
      {"smiles": "Cc1nc2sc(C(=O)N[C@H]3COc4cc(N5CC6CNCC(C5)C6(F)F)ccc4C3)c(N)c2s1", "note": "[Example 2-28, 6-amino-N-((3R)-7-(9,9-difluoro-3,7-diazabicyclo[3.3.1]nonan-3-yl)chroman-3-yl)-2-methylthieno[2,3-d]thiazole-5-carboxamide]", "IC50": "1 to 50"},
      {"smiles": "CCn1ccc2cc(C(=O)N[C@H]3COc4cc(N5CC6CCCC(C5)N6)ccc4C3)nnc21", "note": "[Example 2-29, N-((3R)-7-(3,9-diazabicyclo[3.3.1]nonan-3-yl)chroman-3-yl)-7-ethyl-7H-pyrrolo[2,3-c]pyridazine-3-carboxamide]", "IC50": "50 to 200"},
      {"smiles": "CCn1ccc2cc(C(=O)N[C@H]3COc4cc(N5CC6CNCC(C5)C6(F)F)ccc4C3)cnc21", "note": "[Example 2-30, N-((3R)-7-(9,9-difluoro-3,7-diazabicyclo[3.3.1]nonan-3-yl)chroman-3-yl)-1-ethyl-1H-pyrrolo[2,3-b]pyridine-5-carboxamide]", "IC50": "1 to 50"},
      {"smiles": "Cc1cc(C)c2c(N)c(C(=O)N[C@H]3COc4c(C#N)c(N5CCNCC5)cc(F)c4C3)sc2n1", "note": "[Example 2-31, (R)-3-amino-N-(8-cyano-5-fluoro-7-(piperazin-1-yl)chroman-3-yl)-4,6-dimethylthieno[2,3-b]pyridine-2-carboxamide]", "IC50": "1 to 50"},
      {"smiles": "Cc1cc(C)c2c(N)c(C(=O)N[C@H]3COc4cc(N5CCNCC5)c(C#N)c(F)c4C3)sc2n1", "note": "[Example 2-32, (R)-3-amino-N-(6-cyano-5-fluoro-7-(piperazin-1-yl)chroman-3-yl)-4,6-dimethylthieno[2,3-b]pyridine-2-carboxamide]", "IC50": "1 to 50"},
      {"smiles": "Cc1ccc2c(N)c(C(=O)N[C@H]3COc4cc(N5CC6CNCC(C5)C6(F)F)c(C#N)cc4C3)sc2n1", "note": "[Example 2-33, 3-amino-N-((3R)-6-cyano-7-(9,9-difluoro-3,7-diazabicyclo[3.3.1]nonan-3-yl)chroman-3-yl)-6-methylthieno[2,3-b]pyridine-2-carboxamide]", "IC50": "1 to 50"},
      {"smiles": "[2H]C([2H])([2H])O[C@H]1CN(c2ccc3c(c2)OC[C@H](NC(=O)c2sc4nc(C)ccc4c2N)C3)C[C@@H]1N", "note": "[Example 2-38, 3-amino-N-((R)-7-((3S,4S)-3-amino-4-(methoxy-d3)pyrrolidin-1-yl)chroman-3-yl)-6-methylthieno[2,3-b]pyridine-2-carboxamide]", "IC50": "50 to 200"}
    ]},
    {"target": "T1, USP28 (His-tagged USP28-FL-mammalian)", "assay": "Ubiquitin-Rhodamine 110 Assay for USP28 Activity, Example A-1(a)", "assay_type": "biochemical", "settings": "Ubiquitin-Rhodamine 110 assay, Example A-1(a); read-out: USP28 A-1(a) IC50 range", "in_short": "as §1", "units": {"IC50": "nM"}, "values": [
      {"smiles": "Cc1cnc2c(N)c(C(=O)N[C@H]3CCc4nc(N5CCNCC5)ccc4C3)sc2n1", "note": "[Example 23-6, 7-amino-3-methyl-N-[(6S)-2-(piperazin-1-yl)-5,6,7,8-tetrahydroquinolin-6-yl]thieno[2,3-b]pyrazine-6-carboxamide]", "IC50": "50 to 200"}
    ]}
  ]
}
